From patent US20020172694A1, “Extended release formulation of diltiazem hydrochloride” (DOV Pharmaceutical, Inc., priority 2001, published 2002)
Where a name gives a salt, the structure may show the parent alone.

How the values were obtained:
angina pectoris = conditions: cited from earlier work
[1] = in vivo; cited from earlier work
[2] = single oral dose, healthy individual, FIG. 6
Description: One hundred twenty milligrams (120 mg) of diltiazem hydrochloride powder were combined with a 360 mg dose of DILTIAZEM OD ER. […] Consequently, this mixture contained approximately 25 percent by weight of a quick release preparation of diltiazem, and approximately 75 percent by weight of a slow release preparation of diltiazem, based upon the percentage of diltiazem in the final mixture.
The resulting mixture was then encapsulated in a larger gelatin capsule and orally administered to a healthy individual, taking no medications which would affect diltiazem plasma levels or interfere with their proper determination. Controls containing either 120 mg diltiazem hydrochloride or 360 mg Diltiazem ER were administered separately. An interval of approximately 5-7 days elapsed between the administration of each agent tested in this example.
An intravenous blood sample was withdrawn into pre-cooled, commercially available [sequence] (TM) containing EDTA (ethylenediamine tetraacetic acid) as an anticoagulant Just before administration of the test agent; this sample represented the zero time sample. The blood sample was centrifuged for 15 minutes under conditions known to those skilled in the art. […] The plasma levels of diltiazem were determined by HPLC (High Performance Liquid Chromatography) analysis according to the method of Eradiri (36).

| Structure (SMILES) | incidence of side effects versus other calcium channel blockers (angina pectoris; comparative studies) | efficacy versus beta-adrenergic receptor blockers, nitrates and verapamil (angina pectoris; in vivo) | efficacy versus nifedipine (angina pectoris; in vivo) | plasma half-life [1] | time after administration by which most of the preparation is gone [2] | time to peak plasma levels of diltiazem after administration [2] |
| --- | --- | --- | --- | --- | --- | --- |
| COc1ccc([C@@H]2Sc3ccccc3N(CCN(C)C)C(=O)[C@@H]2OC(C)=O)cc1 [diltiazem, 25-cis-3-(Acetoxyl)-5-[2-(dimethylamino)ethyl]-2-3-dihydro-2-(4-methoxyphenyl)-1,5-benzothiazepin-4(5H)-one] | lower incidence of side effects | equivalent | more effective | 2 to 6 h |  |  |
| COc1ccc([C@@H]2Sc3ccccc3N(CCN(C)C)C(=O)[C@@H]2OC(C)=O)cc1 [diltiazem hydrochloride] |  |  |  |  | 5 to 6 h | 1 to 2 h |
